Measured values taken from patent publication US20090023731A1, “SOLUBLE EPOXIDE HYDROLASE INHIBITORS” (Arete Therapeutics, Inc., priority 2007, published 2009).

Test system: soluble epoxide hydrolase (sEH)
Assay: Fluorescent assay for mouse and human soluble epoxide hydrolase (CMNPC substrate)
Assay type: biochemical
Protocol: Recombinant mouse sEH (MsEH) and human sEH (HsEH) were produced in a baculovirus expression system as previously reported. […] The expressed proteins were purified from cell lysate by affinity chromatography. […] Protein concentration was quantified using the Pierce BCA assay using bovine serum albumin as the calibrating standard.
The IC50s for each inhibitor were according to the following procedure:
Bis/Tris HCl 25 mM pH 7.0 containing 0.1 mg/mL of BSA (buffer A) CMNPC at 0.25 mM in DMSO.
Mother solution of enzyme in buffer A (Mouse sEH at 6 μg/mL and Human sEH at 5 μg/mL). Inhibitor dissolved in DMSO at the appropriate concentration.
In a black 96 well plate, fill all the wells with 150 μL of buffer A.
Add 2 μL of DMSO in well A2 and A3, and then add 2 μL of inhibitor solution in A1 and A4 through A12.
Add […] of buffer A in row A, then mix several time and transfer […] to row B. Repeat this operation up to row H. The […] removed from row H is discarded.
Add […] of buffer A in column 1 and 2, then add […] of enzyme solution to column 3 to 12.
Incubate the plate for 5 minutes in the plate reader at 30° C.
During incubation prepare the working solution of substrate by mixing 3.68 mL of buffer A (4×0.920 mL) with 266 μL (2×133 μL) of substrate solution).
The velocities are used to analyze and calculate the IC50s.

SMILES | % Inh (inhibitor conc. 500 nM) [%] | % Inh (inhibitor conc. 50 nM) [%] | also measured
O=C(Nc1ccccc1)Nc1cccc(OCCCN2CCOCC2)c1 [Compound 1, 1-[3-(3-Morpholin-4-yl-propoxy)-phenyl]-3-phenyl-urea] | 62 |  | 
O=C(Nc1ccc(F)cc1)Nc1cccc(OCCCN2CCOCC2)c1 [Compound 2, 1-(4-Fluoro-phenyl)-3-[3-(3-morpholin-4-yl-propoxy)-phenyl]-urea] |  | 82 | 
O=C(Nc1cccc(OCCCN2CCOCC2)c1)Nc1c(Cl)cccc1Cl [Compound 3, 1-(2,6-Dichloro-phenyl)-3-[3-(3-morpholin-4-yl-propoxy)-phenyl]-urea] |  |  | % Inh (inhibitor conc. 50000 nM): 90%
O=C(Nc1cccc(OCCCN2CCOCC2)c1)Nc1ccc(F)c(F)c1 [Compound 4, 1-(3,4-Difluoro-phenyl)-3-[3-(3-morpholin-4-yl-propoxy)-phenyl]-urea] |  | 75 | 
O=C(Nc1cccc(OCCCN2CCOCC2)c1)Nc1ccc(F)cc1F [Compound 5, 1-(2,4-Difluoro-phenyl)-3-[3-(3-morpholin-4-yl-propoxy)-phenyl]-urea] | 78 |  | 
O=C(Nc1cccc(OCCCN2CCOCC2)c1)Nc1c(F)cc(F)cc1F [Compound 6, 1-[3-(3-Morpholin-4-yl-propoxy)-phenyl]-3-(2,4,6-trifluoro-phenyl)-urea] |  |  | % Inh (inhibitor conc. 50000 nM): 92%
O=C(Nc1cccc(OCCCN2CCOCC2)c1)Nc1c(F)c(F)c(F)c(F)c1F [Compound 7, 1-[3-(3-Morpholin-4-yl-propoxy)-phenyl]-3-pentafluorophenyl-urea] |  |  | % Inh (inhibitor conc. 5000 nM): 87%
O=C(Nc1cccc(OCCCN2CCOCC2)c1)Nc1ccc2c(c1)OCO2 [Compound 8, 1-Benzo[1,3]dioxol-5-yl-3-[3-(3-morpholin-4-yl-propoxy)-phenyl]-urea] | 91 |  | 
O=C(Nc1ccc(C(F)(F)F)cc1)Nc1cccc(OCCCN2CCOCC2)c1 [Compound 9, 1-[3-(3-Morpholin-4-yl-propoxy)-phenyl]-3-(4-trifluoromethyl-phenyl)-urea] |  | 82 | 
O=C(Nc1cccc(OCCCN2CCOCC2)c1)Nc1cccc(C(F)(F)F)c1 [Compound 10, 1-[3-(3-Morpholin-4-yl-propoxy)-phenyl]-3-(3-trifluoromethyl-phenyl)-urea] |  | 74 | 
O=C(Cc1ccc(F)cc1)Nc1cccc(OCCCN2CCOCC2)c1 [Compound 11, 2-(4-Fluoro-phenyl)-N-[3-(3-morpholin-4-yl-propoxy)-phenyl]-acetamide] |  |  | % Inh (inhibitor conc. 5000 nM): 85%
O=C(Cc1ccc2c(c1)OCO2)Nc1cccc(OCCCN2CCOCC2)c1 [Compound 12, 2-Benzo[1,3]dioxol-5-yl-N-[3-(3-morpholin-4-yl-propoxy)-phenyl]-acetamide] |  |  | % Inh (inhibitor conc. 5000 nM): 87%
O=C(Cc1cccnc1)Nc1cccc(OCCCN2CCOCC2)c1 [Compound 13, N-[3-(3-Morpholin-4-yl-propoxy)-phenyl]-2-pyridin-3-yl-acetamide] |  |  | % Inh (inhibitor conc. 50000 nM): 75%
O=C(Nc1ccccc1)Nc1ccc(OCCCN2CCOCC2)cc1 [Compound 14, 1-[4-(3-Morpholin-4-yl-propoxy)-phenyl]-3-phenyl-urea] | 90 |  | 
O=C(Nc1ccc(Cl)cc1)Nc1cccc(OCCCN2CCOCC2)c1 [Compound 15, 1-(4-Chloro-phenyl)-3-[3-(3-morpholin-4-yl-propoxy)-phenyl]-urea] |  | 94 | 
O=C(Nc1cccnc1)Nc1cccc(OCCCN2CCOCC2)c1 [Compound 16, 1-[3-(3-Morpholin-4-yl-propoxy)-phenyl]-3-pyridin-3-yl-urea] |  |  | % Inh (inhibitor conc. 50000 nM): 95%
CN(C)c1cccc(NC(=O)Nc2cccc(OCCCN3CCOCC3)c2)c1 [Compound 17, 1-(3-Dimethylamino-phenyl)-3-[3-(3-morpholin-4-yl-propoxy)-phenyl]-urea] |  |  | % Inh (inhibitor conc. 5000 nM): 95%
O=C(Nc1ccc(OCCN2CCOCC2)cc1)Nc1cccc(OCCCN2CCOCC2)c1 [Compound 18, 1-[4-(2-Morpholin-4-yl-ethoxy)-phenyl]-3-[3-(3-morpholin-4-yl-propoxy)-phenyl]-urea] | 66 |  | 
O=C(Cc1ccc(F)c(F)c1)Nc1cccc(OCCCN2CCOCC2)c1 [Compound 19, 2-(3,4-Difluoro-phenyl)-N-[3-(3-morpholin-4-yl-propoxy)-phenyl]-acetamide] |  |  | % Inh (inhibitor conc. 5000 nM): 92%
O=C(Cc1ccc(Cl)cc1)Nc1ccc(OCCCN2CCOCC2)cc1 [Compound 20, 2-(4-Chloro-phenyl)-N-[4-(3-morpholin-4-yl-propoxy)-phenyl]-acetamide] | 72 |  | 

SMILES | % Inh (inhibitor conc. 500 nM) [%] | % Inh (inhibitor conc. 50 nM) [%] | also measured
O=C(Nc1ccc(OCCCN2CCOCC2)cc1)Nc1ccc(C(F)(F)F)cc1 [Compound 21, 1-[4-(3-Morpholin-4-yl-propoxy)-phenyl]-3-(4-trifluoromethyl-phenyl)-urea] |  | 96 | 
O=C(Cc1ccc(Cl)cc1)Nc1cccc(OCCCN2CCOCC2)c1 [Compound 22, 2-(4-Chloro-phenyl)-N-[3-(3-morpholin-4-yl-propoxy)-phenyl]-acetamide] | 73 |  | 
O=C(Cc1ccc(OC(F)(F)F)cc1)Nc1cccc(OCCCN2CCOCC2)c1 [Compound 23, N-[3-(3-Morpholin-4-yl-propoxy)-phenyl]-2-(4-trifluoromethoxy-phenyl)-acetamide] | 86 |  | 
O=C(Cc1ccc(C(F)(F)F)cc1)Nc1cccc(OCCCN2CCOCC2)c1 [Compound 24, N-[3-(3-Morpholin-4-yl-propoxy)-phenyl]-2-(4-trifluoromethyl-phenyl)-acetamide] | 88 |  | 
O=C(Cc1ccccc1)Nc1ccc(OCCCN2CCOCC2)cc1 [Compound 25, N-[4-(3-Morpholin-4-yl-propoxy)-phenyl]-2-phenyl-acetamide] |  |  | % Inh (inhibitor conc. 5000 nM): 80%
O=C(Nc1ccc(Cl)cc1)Nc1ccc(OCCCN2CCOCC2)cc1 [Compound 26, 1-(4-Chloro-phenyl)-3-[4-(3-morpholin-4-yl-propoxy)-phenyl]-urea] |  | 88 | 
O=C(Cc1ccc(C(F)(F)F)cc1)Nc1ccc(OCCCN2CCOCC2)cc1 [Compound 27, N-[4-(3-Morpholin-4-yl-propoxy)-phenyl]-2-(4-trifluoromethyl-phenyl)-acetamide] | 83 |  | 
O=C(Nc1ccc(OC(F)(F)F)cc1)Nc1cccc(OCCCN2CCOCC2)c1 [Compound 28, 1-[3-(3-Morpholin-4-yl-propoxy)-phenyl]-3-(4-trifluoromethoxy-phenyl)-urea] |  | 90 | 
O=C(Nc1ccccc1)Nc1ccc(F)c(OCCCN2CCOCC2)c1 [Compound 29, 1-[4-Fluoro-3-(3-morpholin-4-yl-propoxy)-phenyl]-3-phenyl-urea] | 73 |  | 
O=C(Nc1ccc(Cl)cc1)Nc1ccc(F)c(OCCCN2CCOCC2)c1 [Compound 30, 1-(4-Chloro-phenyl)-3-[4-fluoro-3-(3-morpholin-4-yl-propoxy)-phenyl]-urea] | 96 |  | 
O=C(Nc1ccc(F)cc1)Nc1ccc(F)c(OCCCN2CCOCC2)c1 [Compound 31, 1-[4-Fluoro-3-(3-morpholin-4-yl-propoxy)-phenyl]-3-(4-fluoro-phenyl)-urea] | 78 |  | 
O=C(Nc1ccc(C(F)(F)F)cc1)Nc1ccc(F)c(OCCCN2CCOCC2)c1 [Compound 32, 1-[4-Fluoro-3-(3-morpholin-4-yl-propoxy)-phenyl]-3-(4-trifluoromethyl-phenyl)-urea] |  | 87 | 
O=C(Nc1ccc(OC(F)(F)F)cc1)Nc1ccc(F)c(OCCCN2CCOCC2)c1 [Compound 33, 1-[4-Fluoro-3-(3-morpholin-4-yl-propoxy)-phenyl]-3-(4-trifluoromethoxy-phenyl)-urea] |  | 83 | 
O=C(Nc1ccc(OCCCN2CCOCC2)cc1)Nc1ccc(OC(F)(F)F)cc1 [Compound 34, 1-[4-(3-Morpholin-4-yl-propoxy)-phenyl]-3-(4-trifluoromethoxy-phenyl)-urea] |  | 91 | 
O=C(Cc1ccc(OC(F)(F)F)cc1)Nc1ccc(OCCCN2CCOCC2)cc1 [Compound 35, N-[4-(3-Morpholin-4-yl-propoxy)-phenyl]-2-(4-trifluoromethoxy-phenyl)-acetamide] |  |  | % Inh (inhibitor conc. 5000 nM): 93%
O=C(Nc1cccc(OCCCN2CCOCC2)c1)c1ccc(C(F)(F)F)cc1 [Compound 36, N-[3-(3-Morpholin-4-yl-propoxy)-phenyl]-4-trifluoromethyl-benzamide] | 79 |  | 
O=C(Nc1cccc(OCCCN2CCOCC2)c1)NC1CCCCC1 [Compound 41, 1-Cyclohexyl-3-[3-(3-morpholin-4-yl-propoxy)-phenyl]-urea] |  | 96 | 
CC(C)(C)NC(=O)Nc1cccc(OCCCN2CCOCC2)c1 [Compound 42, 1-tert-Butyl-3-[3-(3-morpholin-4-yl-propoxy)-phenyl]-urea] |  |  | % Inh (inhibitor conc. 5000 nM): 79%
O=C(CC12CC3CC(CC(C3)C1)C2)Nc1cccc(OCCCN2CCOCC2)c1 [Compound 43, 2-Adamantan-1-yl-N-[3-(3-morpholin-4-yl-propoxy)-phenyl]-acetamide] |  | 93 | 
